# Laboratory results as given in patent US12667572B2, “Tricyclic compounds useful in the treatment of cancer, autoimmune and inflammatory disorders” (SCHRÖDINGER, INC., priority 2021, dated 2026).
# Target: T1, full-length MALT1 protein His-MALT1(1-824) (Homo sapiens, UniProt Q9UDY8)
# T1 construct: full-length MALT1 protein His-MALT1(1-824); His (N); made in house; host or cells: baculovirus-infected insect cells
# T1 sequence (Q9UDY8 1-824): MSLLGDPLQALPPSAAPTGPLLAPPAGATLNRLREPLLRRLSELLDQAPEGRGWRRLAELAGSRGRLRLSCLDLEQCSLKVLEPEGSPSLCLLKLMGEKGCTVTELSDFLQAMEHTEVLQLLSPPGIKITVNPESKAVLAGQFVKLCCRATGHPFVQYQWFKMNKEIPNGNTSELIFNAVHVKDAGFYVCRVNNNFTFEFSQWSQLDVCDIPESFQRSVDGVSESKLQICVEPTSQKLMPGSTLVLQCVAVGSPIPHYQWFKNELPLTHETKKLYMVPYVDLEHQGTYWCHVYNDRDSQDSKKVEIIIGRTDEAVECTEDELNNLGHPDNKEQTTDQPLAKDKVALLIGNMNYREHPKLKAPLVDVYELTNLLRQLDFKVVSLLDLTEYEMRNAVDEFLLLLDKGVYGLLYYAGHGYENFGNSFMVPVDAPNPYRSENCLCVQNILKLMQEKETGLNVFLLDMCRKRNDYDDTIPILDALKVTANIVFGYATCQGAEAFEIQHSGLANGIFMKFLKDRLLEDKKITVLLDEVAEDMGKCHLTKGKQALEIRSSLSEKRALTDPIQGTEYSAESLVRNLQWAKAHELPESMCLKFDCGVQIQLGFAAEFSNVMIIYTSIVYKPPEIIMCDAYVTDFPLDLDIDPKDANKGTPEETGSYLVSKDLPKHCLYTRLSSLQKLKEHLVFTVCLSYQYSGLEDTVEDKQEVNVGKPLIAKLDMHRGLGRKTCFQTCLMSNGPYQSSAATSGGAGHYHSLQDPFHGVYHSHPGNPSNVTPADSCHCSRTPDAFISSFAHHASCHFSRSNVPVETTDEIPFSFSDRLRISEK
# Test: MALT1 protease assay, Assay 2 (1 nM MALT1, Ac-LRSR-AMC substrate)
# Assay type: biochemical
# Settings: 1 nM MALT1, 50 μM Ac-LRSR-AMC, 2 h pre-incubation, 8 hr incubation at RT
# Method in brief: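 Compounds (0.1% DMSO final) sat 2 h at RT with insect-cell-expressed His-MALT1(1-824), in 50 mM Tris pH 7.5, 600 mM sodium citrate, 1 mM DTT, 1 mM EDTA, 0.05% BSA. Cleavage of 50 μM Ac-LRSR-AMC (Km ~100 μM) ran 8 h at RT, read as AMC fluorescence. IC50 and Hill coefficient fitted to % remaining activity.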
row,Compound,IC50
1,"CC1(C)CC(C(=O)Nc2cc(C#N)c(OC(F)F)nn2)c2cnc3cc(F)nn3c21 (stereo not shown) [Example 85, N-(5-cyano-6-(difluoromethoxy)pyridazin-3-yl)-2-fluoro-8,8-dimethyl-7,8-dihydro-6H-cyclopenta[e]pyrazolo[1,5-a]pyrimidine-6-carboxamide]",100 to 1000 nM
2,"CC(C)(C)C1OC(=O)c2cc(NC(=O)C3CC4(CCC4)c4c3cnc3cc(F)nn43)cnc21 (stereo not shown) [Example 166, N-(7-(tert-butyl)-5-oxo-5,7-dihydrofuro[3,4-b]pyridin-3-yl)-2′-fluoro-6′,7′-dihydrospiro[cyclobutane-1,8′-cyclopenta[e]pyrazolo[1,5-a]pyrimidine]-6′-carboxamide]",≥ 1000 nM
3,"CC1(C)C[C@@H](C(=O)Nc2cnc(-n3nccn3)c(Cl)c2)c2cnc3c(F)c(F)nn3c21 (single isomer, unassigned) [Example 121, N-(5-chloro-6-(2H-1,2,3-triazol-2-yl)pyridin-3-yl)-2,3-difluoro-8,8-dimethyl-7,8-dihydro-6H-cyclopenta[e]pyrazolo[1,5-a]pyrimidine-6-carboxamide]",100 to 1000 nM
4,"N#Cc1cc(NC(=O)C2CC3(CCOCC3)c3c2cnc2cc(F)nn32)cnc1OC(F)F (single isomer, unassigned) [Example 147, N-(5-cyano-6-(difluoromethoxy)pyridin-3-yl)-2-fluoro-2′,3′,5′,6,6′,7-hexahydrospiro[cyclopenta[e]pyrazolo[1,5-a]pyrimidine-8,4′-pyran]-6-carboxamide]",≥ 1000 nM
5,"CC1(C)CC(C(=O)Nc2cnc(-n3nccn3)c(C#N)c2)c2cnc3cc(F)nn3c21 (single isomer, unassigned) [Example 88, N-(5-cyano-6-(2H-1,2,3-triazol-2-yl)pyridin-3-yl)-2-fluoro-8,8-dimethyl-7,8-dihydro-6H-cyclopenta[e]pyrazolo[1,5-a]pyrimidine-6-carboxamide]",10 to 100 nM
6,"CC1(C)C[C@@H](C(=O)Nc2cnc(OC(F)F)c(C#N)c2)c2cnc3c(F)c(F)nn3c21 (single isomer, unassigned) [Example 90, N-(5-cyano-6-(difluoromethoxy)pyridin-3-yl)-2,3-difluoro-8,8-dimethyl-7,8-dihydro-6H-cyclopenta[e]pyrazolo[1,5-a]pyrimidine-6-carboxamide]",≥ 1000 nM
7,"Cc1c(F)nn2c3c(cnc12)C(C(=O)Nc1cnc(-n2nccn2)c(Cl)c1)CC3(C)C (single isomer, unassigned) [Example 113, N-(5-chloro-6-(2H-1,2,3-triazol-2-yl)pyridin-3-yl)-2-fluoro-3,8,8-trimethyl-7,8-dihydro-6H-cyclopenta[e]pyrazolo[1,5-a]pyrimidine-6-carboxamide]",≥ 1000 nM
8,"CC1(C)CC(C(=O)Nc2cnc(OC3CC3)c(Cl)c2)c2cnc3cc(Cl)nn3c21 (single isomer, unassigned) [Example 74, 2-chloro-N-(5-chloro-6-cyclopropoxypyridin-3-yl)-8,8-dimethyl-7,8-dihydro-6H-cyclopenta[e]pyrazolo[1,5-a]pyrimidine-6-carboxamide]",≥ 1000 nM
9,"CC1(C)CC(C(=O)Nc2cnc(N=S(C)(C)=O)c(Cl)c2)c2cnc3cc(F)nn3c21 (single isomer, unassigned) [Example 132, N-(5-chloro-6-((dimethyl(oxo)-λ^6-sulfaneylidene)amino)pyridin-3-yl)-2-fluoro-8,8-dimethyl-7,8-dihydro-6H-cyclopenta[e]pyrazolo[1,5-a]pyrimidine-6-carboxamide]",10 to 100 nM
10,"Cc1cc(NC(=O)C2CC(C)(C)c3c2cnc2cc(F)nn32)cnc1-c1ccn(C)n1 (stereo not shown) [Example 177, 2-fluoro-8,8-dimethyl-N-(5-methyl-6-(1-methyl-1H-pyrazol-3-yl)pyridin-3-yl)-7,8-dihydro-6H-cyclopenta[e]pyrazolo[1,5-a]pyrimidine-6-carboxamide]",100 to 1000 nM
11,"CC1(C)C[C@](C)(C(=O)Nc2cnc(-n3nccn3)c(Cl)c2)c2cnc3cc(Cl)nn3c21 (single isomer, unassigned) [Example 138, 2-chloro-N-(5-chloro-6-(2H-1,2,3-triazol-2-yl)pyridin-3-yl)-6,8,8-trimethyl-7,8-dihydro-6H-cyclopenta[e]pyrazolo[1,5-a]pyrimidine-6-carboxamide]",≥ 1000 nM
12,"CN(C(=O)c1ncc(NC(=O)[C@@H]2CC(C)(C)c3c2cnc2cc(Cl)nn32)cc1C(F)F)C1CC1 (single isomer, unassigned) [Example 72, 2-chloro-N-(6-(cyclopropyl(methyl)carbamoyl)-5-(difluoromethyl)pyridin-3-yl)-8,8-dimethyl-7,8-dihydro-6H-cyclopenta[e]pyrazolo[1,5-a]pyrimidine-6-carboxamide]",≥ 1000 nM
13,"CCO[C@@]1(C(F)(F)F)C[C@@H](C(=O)Nc2cnc(-n3nccn3)c(Cl)c2)c2cnc3cc(Cl)nn3c21 (single isomer, unassigned) [Example 167, (cis)-2-chloro-N-(5-chloro-6-(2H-1,2,3-triazol-2-yl)pyridin-3-yl)-8-ethoxy-8-(trifluoromethyl)-7,8-dihydro-6H-cyclopenta[e]pyrazolo[1,5-a]pyrimidine-6-carboxamide]",100 to 1000 nM
14,"CC1(C)CC(C(=O)Nc2cnc(-n3nccn3)c(C#N)c2)c2cnn3cc(C(F)F)nc3c21 (single isomer, unassigned) [Example 197, N-(5-cyano-6-(2H-1,2,3-triazol-2-yl)pyridin-3-yl)-2-(difluoromethyl)-9,9-dimethyl-8,9-dihydro-7H-cyclopenta[d]imidazo[1,2-b]pyridazine-7-carboxamide]",10 to 100 nM
15,"CC1(C)C[C@@H](C(=O)Nc2ccnc(C(F)(F)F)c2)c2cnn3cc(C(F)F)nc3c21 (single isomer, unassigned) [Example 200, 2-(difluoromethyl)-9,9-dimethyl-N-(2-(trifluoromethyl)pyridin-4-yl)-8,9-dihydro-7H-cyclopenta[d]imidazo[1,2-b]pyridazine-7-carboxamide]",100 to 1000 nM
16,"CC1(C)CC(C(=O)Nc2cnc(OC(F)F)c(C#N)c2)c2cnn3cc(C(F)F)nc3c21 (single isomer, unassigned) [Example 199, N-(5-cyano-6-(difluoromethoxy)pyridin-3-yl)-2-(difluoromethyl)-9,9-dimethyl-8,9-dihydro-7H-cyclopenta[d]imidazo[1,2-b]pyridazine-7-carboxamide]",10 to 100 nM
17,"CC1(C)CC(C(=O)Nc2cnc(N=S(C)(C)=O)c(Cl)c2)c2cnc3cc(F)nn3c21 (single isomer, unassigned) [Example 131, N-(5-chloro-6-((dimethyl(oxo)-λ^6-sulfaneylidene)amino)pyridin-3-yl)-2-fluoro-8,8-dimethyl-7,8-dihydro-6H-cyclopenta[e]pyrazolo[1,5-a]pyrimidine-6-carboxamide]",≥ 1000 nM
18,"Cc1cc(NC(=O)[C@@H]2CC(C)(C)c3c2cnc2cc(Cl)nn32)cnc1-n1nccn1 (single isomer, unassigned) [Example 181]",10 to 100 nM
19,"CC1(C)CC(C(=O)Nc2cnc(-n3cc(C4COC4)nn3)c(Cl)c2)c2cnc3cc(Cl)nn3c21 (stereo not shown) [Example 119, 2-chloro-N-(5-chloro-6-(4-(oxetan-3-yl)-1H-1,2,3-triazol-1-yl)pyridin-3-yl)-8,8-dimethyl-7,8-dihydro-6H-cyclopenta[e]pyrazolo[1,5-a]pyrimidine-6-carboxamide]",100 to 1000 nM
20,"CC(C)(O)c1ncc(NC(=O)C2CC3(CCC3)c3c2cnc2cc(F)nn32)cc1C(F)(F)F (single isomer, unassigned) [Example 153, 2′-fluoro-N-(6-(2-hydroxypropan-2-yl)-5-(trifluoromethyl)pyridin-3-yl)-6′,7′-dihydrospiro[cyclobutane-1,8′-cyclopenta[e]pyrazolo[1,5-a]pyrimidine]-6′-carboxamide]",≥ 1000 nM
21,"CC1(C)C[C@@H](C(=O)Nc2cnc(-n3nccn3)c(C(F)(F)F)c2)c2cnc3cc(F)nn3c21 (single isomer, unassigned) [Example 150, N-(6-(2H-1,2,3-triazol-2-yl)-5-(trifluoromethyl)pyridin-3-yl)-2-fluoro-8,8-dimethyl-7,8-dihydro-6H-cyclopenta[e]pyrazolo[1,5-a]pyrimidine-6-carboxamide]",10 to 100 nM
22,"CC1(C)O[C@H](C(=O)Nc2cnc(-n3nccn3)c(Cl)c2)c2cnc3cc(Cl)nn3c21 (single isomer, unassigned) [Example 71, 2-chloro-N-(5-chloro-6-(2H-1,2,3-triazol-2-yl)pyridin-3-yl)-8,8-dimethyl-6,8-dihydrofuro[3,4-e]pyrazolo[1,5-a]pyrimidine-6-carboxamide]",100 to 1000 nM
